Assay results reported in US7776885B2, “Benzimidazolone compounds having 5-HT4 receptor agonistic activity” (Pfizer, Inc., priority 2003, dated 2010).
Structures can show the parent of a compound that is named as a salt.

Key:
[1] = target: T1, 5-HT4 receptors in the rat oesophagus (Rattus norvegicus, UniProt Q62758); experiment: Functional assay in rat oesophagus TMM preparation (relaxation of carbachol-contracted tissue); conditions: 1 μM antagonist added to bath
T1 construct: The remaining inner tube of smooth muscle was known as the TMM; from tissue; host or cells: rat oesophagus tunica muscularis mucosae (TMM), male SD rats (Charles River)
T1 sequence (Q62758 whole entry): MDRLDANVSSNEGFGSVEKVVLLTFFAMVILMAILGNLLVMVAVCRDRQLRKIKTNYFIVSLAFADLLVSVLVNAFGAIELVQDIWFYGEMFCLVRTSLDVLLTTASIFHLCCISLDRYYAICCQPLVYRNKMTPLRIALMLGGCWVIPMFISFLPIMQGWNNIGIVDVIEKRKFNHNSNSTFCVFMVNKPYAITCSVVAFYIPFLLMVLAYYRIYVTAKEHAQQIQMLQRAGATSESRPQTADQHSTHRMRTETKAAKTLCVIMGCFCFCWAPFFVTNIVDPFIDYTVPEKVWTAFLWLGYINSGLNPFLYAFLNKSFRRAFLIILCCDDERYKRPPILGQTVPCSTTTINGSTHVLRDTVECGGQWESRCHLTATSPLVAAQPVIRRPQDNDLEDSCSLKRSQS
Text: More specifically, partial agonist activity can be measured according to the following procedures.
Male SD rats (Charles River) weighing 250-350 g were stunned and then killed by cervical dislocation. The oesophagus was dissected from immediately proximal to the stomach (including piece of stomach to mark distal end) up to the level of the trachea and then placed in fresh Krebs' solution.
The outer skeletal muscle layer was removed in one go by peeling it away from the underlying smooth muscle layer using forceps (stomach to tracheal direction). The remaining inner tube of smooth muscle was known as the TMM. This was trimmed to 2 cm from the original ‘stomach-end’ and the rest discarded.
The TMMs were mounted as whole ‘open’ tubes in longitudinal orientation in 5 ml organ baths filled with warm (32° C.) aerated Krebs. Tissues were placed under an initial tension of 750 mg and allowed to equilibrate for 60 minutes. The tissues were re-tensioned twice at 15 minute intervals during the equilibration period. The pump flow rate was set to 2 ml/min during this time.
Following equilibration, the pump was switched off. The tissues were exposed to 1 μM carbachol and contracted and reached a steady contractile plateau within 15 minutes. Tissues were then subject to 1 μM 5-HT (this was to prime the tissues). The tissues relaxed in response to 5-HT fairly rapidly—within 1 minute. […]

Row | SMILES | melting point [°C] | reversal of 5-HT induced relaxation [1]
1 | CC(C)n1c(=O)n(C(=O)NCC2CCN(CC(=O)N3CCOCC3)CC2)c2ccccc21 (as salt: oxalate) | 194.2 | 
2 | O=C(OCCN1CCCCC1)c1c[nH]c2ccccc12 [SB 203,186, 1H-Indole-3-carboxylic acid, 2-(1-piperidinyl)ethyl ester] |  | reversed 5-HT induced relaxation
